Measured values published in patent US20100204161A1, “Substances and Pharmaceutical Compositions for the Inhibition of Glyoxalases and Their Use Against Bacteria” (BIOMAC PRIVATINSTITUT FUR MEDIZINISHE UND ZAHMEDIZ …, priority 2005, published 2010).

What was measured:
yeast glyoxalase I = biological target: T1, yeast glyoxalase I (Saccharomyces cerevisiae, UniProt P50107); assay: Enzymatic activity of yeast glyoxalase I (formation of S-D-lactoyl-glutathione, 240 nm); format: biochemical; conditions: for Influence on the enzymatic activity of yeast glyoxalase I: increasing concentrations (0-30 mM in Example 5), FIG. 1-3
T1 construct: purchased Sigma G-4252
T1 sequence (P50107 1-326): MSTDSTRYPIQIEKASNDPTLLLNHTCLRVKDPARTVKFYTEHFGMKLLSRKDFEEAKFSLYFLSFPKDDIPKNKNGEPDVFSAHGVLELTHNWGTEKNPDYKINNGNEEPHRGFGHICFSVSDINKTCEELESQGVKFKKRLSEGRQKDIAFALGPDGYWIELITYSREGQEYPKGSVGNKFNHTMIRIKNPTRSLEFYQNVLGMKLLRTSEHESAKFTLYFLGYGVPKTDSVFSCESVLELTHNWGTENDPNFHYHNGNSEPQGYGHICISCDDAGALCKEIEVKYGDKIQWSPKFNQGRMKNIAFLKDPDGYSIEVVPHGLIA
Experimental: Measuring glyoxalase I (E.C.4.4.1.5, lactoyl-glutathione lyase Sigma, G-4252) was performed according to the instructions of McLellan and Thornalley (1989). The principle is based on measuring the initial rate of formation of S-D-lactoyl-glutathione from methylglyoxal (Sigma, MO252, 40%) and reduced L-glutathione (Aldrich, G-4251, >99%). The formation of the product is observed using the extinction coefficient e=2.86 mM-1 cm-1 at 240 nm. The measurement was performed in 50 mM sodium phosphate buffer, pH 7.0. For that purpose 2 mM methylglyoxal and 2 mM reduced glutathione were incubated for 2 minutes at 30° C. for the formation of the hemithioacetal. Thereafter 20 μl of a 1 to 1000 dilution of the glyoxalase I (Sigma, G-4252) was added to 1 ml of the measuring reagent to start the reaction.
Glyoxalase activity (IU) corresponds to the amount of enzyme forming 1 μmol of S-D-lactoyl-glutathione/min.
Determination of glyoxalase I activity was performed according to the general protocol as described above. The influence of ethyl pyruvate on enzyme activity was investigated by addition of increasing concentrations of EP (Sigma; no. E4, 780-8; lot. S18972-513) to the measuring reagent.
Determination of glyoxalase I activity was performed according to the general protocol as described above. The influence of compounds of the general formula (I), (II), and (III) on the activity of the enzyme was investigated by addition of increasing concentrations of these compounds to the preparation. The IC50-values were calculated from inhibition curves of each compound.
Determination of glyoxalase I activity was performed according to the general protocol as described above. The influence of 2-oxopropanethioic acid S-ethyl ester on the activity of the enzyme was investigated by addition of increasing concentrations of SE to the preparation for the measurement.
Determination of glyoxalase I activity was performed according to the general protocol as described above. The influence of effectors on the enzymatic activity was investigated by addition of increasing concentrations (0-30 mM) of EP (Sigma; no. E4, 780-8; lot. S18972-513) (triangle), BP (prepared according to the instructions of patent JP 11080089; 98%) (circle) and BL (Fluka, 69819; lot. 443090/1 21503090) (squares) to the measuring reagent (FIG. 3).

[1] = system: biofilms (biofilm-forming microorganisms from pipe water); assay: Destruction of biofilms on contaminated silicone surfaces (colony forming units); format: cell-based; conditions: normalized to 1 cm2 inner tube surface
Experimental: Biofilms were allowed to generate in a silicon tube system according to Gebel et al. (2005). In short, pipe water from a public water distributor was used as the source of biofilm-forming microorganisms. Water flow was at about 20 l per hour through silicon tubes from two commercial suppliers with inner diameters of 4 mm for 30 days at 25° C. After that the tubes were emptied, sealed at both ends and treated on their outer surface with 0.2% peroxoacetic acid for 1 hour. Tubes were then rinsed with sterile water and afterwards cut into pieces of 5 cm length each using a sterile scalpel. Pieces obtained this way were then dipped into solutions which contained the substance to be tested or respective controls. 25 ml of the test solutions were used in closed Falcon tubes (50 ml). […] Tubes were opened over their full length with scissors and the material deposited at the original inner surfaces of the tubes homogenized in 10 ml of saline (9 g NaCl/l water). Dilutions were made (decimal steps to 10^4) and 0.1 ml of these solutions plated onto test agar plates (1 l contained 0.5 g yeast extract, 0.5 g peptone, 0.5 g casein hydrolysate, 0.5 g starch. 0.3 g potassium hydrogen phosphate, 24 mg magnesium sulphate, 0.3 g sodium pyruvate, 15 g agar). Plates were incubated for seven days at 20° C. Colonies which formed were counted on each plate independent of their appearance and color. […] Two dilutions must be consistent in colony numbers, taken into consideration the respective dilution factors. Numbers were normalized to 1 cm2 of the inner tube surface. Each substance was analysed in duplicates. Biofilms were treated with water (control), ethyl pyruvate […] Numbers are given for each of the different silicon tubes used.

[2] = system: primary human skin fibroblasts; assay: Vitality of primary human fibroblasts (dye exclusion count); format: cell-based; conditions: 1-50 mM, serum free medium, 24 hours; FIG. 7
Experimental: An identical number (10^4 cells per well) of primary human skin fibroblasts were inoculated in 24-well plates (Greiner, no. 662160) and were cultured in DMEM (Gibco; no. 41966-092) in the presence of 10% calf serum (Biochrom, S0113/5), 2 mM L-glutamine (Gibco; no. 25030-024), penicillin/streptomycin (100 units penicillin/ml; 100 μg streptomycin/ml, Gibco; no. 15140/122), 5 mg % ascorbic acid (Serva, no. 14030.02) at 37° C., 5% CO2 and 95% humidity. The primary human fibroblasts were prepared according to the instructions of Birkenmeier et al. (1998). After reaching 50% confluency the medium was by fresh serum free medium. Thereafter the following supplements were added to the cells: preparation 1 (equivalent volume of serum free (SF) medium, blank); preparation 2 (1 mM DEL or 1 mM LEL or 1 mM EP); preparation 3 (5 mM DEL or 5 mM LEL or 5 mM EP), preparation 4 (10 mM DEL or 10 mM LEL or 10 mM EP), preparation 5 (20 mM DEL or 20 mM LEL or 20 mM EP), preparation 6 (50 mM DEL or 50 mM LEL or 50 mM EP). The culture was continued at 37° C., 5% CO2 and 95% humidity for 24 hours. Thereafter the supernatants were removed and 100 μl of a 50% […] solution was added to the wells. After washing the cells with medium the unstained and stained cells were counted under the light optical microscope comprising a coordinate plane. Cells stained blue were assessed as avital, unstained cells as vital. The percentage of unstained cells of the total number of cells corresponds to the vitality of the cells.

[3] = system: NAD-dependent lactate dehydrogenases; assay: Interconversion by NAD-dependent lactate dehydrogenases; format: in vitro ADME; conditions: inventors' own measurements

In the case of `CCSC(=O)C(C)=O` [SE, 2-Oxopropanethioic acid S-ethyl ester], the “Influence on the enzymatic activity of yeast glyoxalase I” value (shortened to “Influence on the enzymatic activity”) (yeast glyoxalase I) is reported as “inhibits the reaction of the glyoxalase I of yeast in a concentration dependent manner”.
`CCOC(C)=O` [Ester control, ethyl acetate, reference compound] was tested, and the “Colony forming units derivable from biofilms after treatment” value (“Colony forming units derivable” for short) ([1]; 25 mM, 30 min, first silicon tube) was 5.1 × 10^5 colony forming units, the “Colony forming units derivable” value ([1]; 25 mM, 30 min, second silicon tube) was 6.5 × 10^5 colony forming units and the “Colony forming units derivable” value ([1]; 25 mM, 120 min, first silicon tube) was 7.0 × 10^4 colony forming units. For the same molecule, the “Colony forming units derivable” value ([1]; 25 mM, 120 min, second silicon tube) was 1.1 × 10^5 colony forming units.
For `CCOC(=O)[C@@H](C)O` [(+)-Ethyl D-Lactate], the “Effect on the vitality of primary human fibroblasts” value [2] was “not toxic over the concentration range investigated”.
With `CCCCOC(=O)[C@H](C)O` [(−)-Butyl L-Lactate] the “Influence on the enzymatic activity” value (yeast glyoxalase I) was “does not influence the reaction of glyoxalase”.
With `CCOC(=O)[C@H](C)O` [(−)-Ethyl L-Lactate] the “Effect on the vitality of primary human fibroblasts” value [2] was “not toxic over the concentration range investigated”.
`CC(=O)OO` [Peroxo acetic acid, peroxoacetic acid, reference compound] was tested, and the “Colony forming units derivable” value ([1]; 0.1%, 30 min, first silicon tube) was 8.2 × 10^3 colony forming units, the “Colony forming units derivable” value ([1]; 0.1%, 30 min, second silicon tube) was 9.3 × 10^3 colony forming units and the “Colony forming units derivable” value ([1]; 0.1%, 120 min, first silicon tube) was 3.1 × 10^3 colony forming units. The “Colony forming units derivable” value ([1]; 0.1%, 120 min, second silicon tube) was 4.7 × 10^3 colony forming units.
In the case of `CCCCOC(=O)C(C)=O` [Butyl pyruvate], the “Effect on yeast glyoxalase I compared with EP” value (yeast glyoxalase I; 0-30 mM, FIG. 3) is reported as “the effect of BP is stronger than the effect of EP” and the “Influence on the enzymatic activity” value (yeast glyoxalase I) is reported as “inhibit the activity of glyoxalase I in a concentration dependent manner”.
For `CCCCOC(=O)C(C)O` (stereo not drawn) [Butyl lactate], the “Transformation by NAD-dependent lactate dehydrogenases” value [3] was “to a lesser degree than ethyl lactate, also be transformed”.
